# Values quoted from earlier work as cited in patent publication US20020098221A1, “Oil-in-water emulsion formulation of insecticides” (priority 2000, published 2002).
# Details: at room temperature
row,Structure (SMILES),solubility in water
1,COCC(C)O (centres unmarked) [1-methoxy-2-propanol],100%
2,OCc1ccccc1 [benzyl alcohol],4%
3,O=C1CCCCC1 [cyclohexanone],8%

# Next, values leading:
row,solubility in water,Structure (SMILES)
1,100%,C[S+](C)[O-] [dimethylsulfoxide]
2,100%,CN1CCCC1=O [n-methylpyrrolidone]
